Experimental data: the supplement of paper PMC11451515

Test system: SEM cells
Test: cell viability relative to DMSO control; higher = less cytotoxic
Details: 48 h
In short: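 Before seeding, each leukemia line was adapted for at least four passages in each medium. NOMO1 or SEM cells (500 cells/well) and P12-Ichikawa cells (1000 cells/well) went into 1536-well plates at 5 μl, then received library compounds in DMSO by pin dosing across 11 threefold concentrations, 47 μM to 0.79 nM. Readout was CellTiter-Glo One luminescence after 48 h at 37°C, and viability is given as a per-plate percentage of DMSO wells, with cell-free wells as background.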

[1] = HPLM + 10% dialyzed FBS, 0.000781 µM
[2] = HPLM + 10% dialyzed FBS, 0.00234 µM
[3] = HPLM + 10% dialyzed FBS, 0.00702 µM
[4] = HPLM + 10% dialyzed FBS, 0.0211 µM
[5] = HPLM + 10% dialyzed FBS, 0.0632 µM
[6] = HPLM + 10% dialyzed FBS, 0.19 µM
[7] = HPLM + 10% dialyzed FBS, 0.569 µM
[8] = HPLM + 10% dialyzed FBS, 1.71 µM
[9] = HPLM + 10% dialyzed FBS, 5.12 µM
[10] = HPLM + 10% dialyzed FBS, 15.4 µM
[11] = HPLM + 10% dialyzed FBS, 46.1 µM
[12] = RPMI 5 mM glucose + 10% dialyzed FBS, 0.000781 µM
[13] = RPMI 5 mM glucose + 10% dialyzed FBS, 0.00234 µM
[14] = RPMI 5 mM glucose + 10% dialyzed FBS, 0.00702 µM
[15] = RPMI 5 mM glucose + 10% dialyzed FBS, 0.0211 µM
[16] = RPMI 5 mM glucose + 10% dialyzed FBS, 0.0632 µM
[17] = RPMI 5 mM glucose + 10% dialyzed FBS, 0.19 µM
[18] = RPMI 5 mM glucose + 10% dialyzed FBS, 0.569 µM
[19] = RPMI 5 mM glucose + 10% dialyzed FBS, 1.71 µM
[20] = RPMI 5 mM glucose + 10% dialyzed FBS, 5.12 µM
[21] = RPMI 5 mM glucose + 10% dialyzed FBS, 15.4 µM
[22] = RPMI 5 mM glucose + 10% dialyzed FBS, 46.1 µM
[23] = RPMI 5 mM glucose + 10% FBS, 0.000781 µM
[24] = RPMI 5 mM glucose + 10% FBS, 0.00234 µM
[25] = RPMI 5 mM glucose + 10% FBS, 0.00702 µM
[26] = RPMI 5 mM glucose + 10% FBS, 0.0211 µM
[27] = RPMI 5 mM glucose + 10% FBS, 0.0632 µM
[28] = RPMI 5 mM glucose + 10% FBS, 0.19 µM
[29] = RPMI 5 mM glucose + 10% FBS, 0.569 µM
[30] = RPMI 5 mM glucose + 10% FBS, 1.71 µM
[31] = RPMI 5 mM glucose + 10% FBS, 5.12 µM
[32] = RPMI 5 mM glucose + 10% FBS, 15.4 µM
[33] = RPMI 5 mM glucose + 10% FBS, 46.1 µM

| Compound | cell viability [1] [%] | cell viability [2] [%] | cell viability [3] [%] | cell viability [4] [%] | cell viability [5] [%] | cell viability [6] [%] | cell viability [7] [%] | cell viability [8] [%] | cell viability [9] [%] | cell viability [10] [%] | cell viability [11] [%] | cell viability [12] [%] | cell viability [13] [%] | cell viability [14] [%] | cell viability [15] [%] | cell viability [16] [%] | cell viability [17] [%] | cell viability [18] [%] | cell viability [19] [%] | cell viability [20] [%] | cell viability [21] [%] | cell viability [22] [%] | cell viability [23] [%] | cell viability [24] [%] | cell viability [25] [%] | cell viability [26] [%] | cell viability [27] [%] | cell viability [28] [%] | cell viability [29] [%] | cell viability [30] [%] | cell viability [31] [%] | cell viability [32] [%] | cell viability [33] [%] |
| --- | --- | --- | --- | --- | --- | --- | --- | --- | --- | --- | --- | --- | --- | --- | --- | --- | --- | --- | --- | --- | --- | --- | --- | --- | --- | --- | --- | --- | --- | --- | --- | --- | --- |
| CCOC1=CC(=CC=C1C/2=N/[C@@](C)(C3=CC=C(Cl)C=C3)[C@](C)(N2C(=O)N4CCN(CC4)CC(=O)N5CCOCC5)C6=CC=C(Cl)C=C6)C(C)(C)C | 82.5 | 107 | 108 | 107 | 117 | 106 | 105 | 93.5 | 81.1 | 66 | 71 | 112 | 99.8 | 108 | 111 | 107 | 109 | 116 | 109 | 90.2 | 65.2 | 61.4 |  |  |  |  |  |  |  |  |  |  |  |
| CC(=O)[C@H]1CC[C@H]2[C@@H]3CCC4=CC(=O)CC[C@]4(C)[C@H]3CC[C@]12C | 69 | 83.5 | 89.4 | 92.3 | 82.1 | 102 | 103 | 97 | 88.7 | 88.1 | 92.7 | 108 | 92.7 | 103 | 109 | 103 | 119 | 106 | 117 | 90.8 | 81.7 | 90.7 | 98 | 96.9 | 102 | 113 | 113 | 116 | 120 | 106 | 96.7 | 101 | 92.8 |
| COc1cc(OC)c(NC(=O)Nc2cc(C)on2)cc1Cl | 95.9 | 94.2 | 104 | 98.4 | 94.6 | 99.8 | 97.3 | 112 | 100 | 97.5 | 71.3 | 84.8 | 100 | 90.3 | 94.5 | 105 | 108 | 96.1 | 89.7 | 101 | 91.5 | 71.1 | 74.3 | 79.6 | 90.9 | 89.6 | 82 | 86.5 | 91.3 | 92 | 76.6 | 80.6 | 63.8 |
| O=C1CCc2ccc(OCCCCN3CCN(c4cccc(Cl)c4Cl)CC3)cc2N1 | 111 | 121 | 111 | 41 | 113 | 112 | 101 | 89.2 | 129 | 119 | 113 | 120 | 108 | 113 | 34.9 | 105 | 112 | 120 | 106 | 105 | 117 | 74.7 | 104 | 111 | 105 | 24.5 | 96.4 | 101 | 98.5 | 23.1 | 107 | 95.7 | 73.1 |
| COc1ccc(Nc2cc(-c3cnc(N)nc3)nc(N3CCOCC3)n2)cn1 | 93.8 | 96.7 | 90.6 | 96.8 | 99.4 | 102 | 92.6 | 84.7 | 47.3 | 59.8 | 44.6 | 98.6 | 89.5 | 91 | 105 | 97 | 80.9 | 89.6 | 89.7 | 43.9 | 57.4 | 44.5 | 104 | 104 | 110 | 115 | 120 | 99.5 | 108 | 99 | 52.8 | 65.6 | 57 |
| CCCCCCCCCCCCCCCCCCOP(=O)([O-])OC1CC[N+](C)(C)CC1 | 82.4 | 112 | 97.5 | 88.7 | 103 | 101 | 109 | 106 | 87.4 | 82.4 | 73.8 | 101 | 96.9 | 98 | 84.3 | 99.9 | 94.9 | 101 | 99.9 | 87.6 | 82 | 60.2 | 91.9 | 104 | 100 | 95.3 | 120 | 108 | 104 | 102 | 98.2 | 98.4 | 73.7 |
| O=c1[nH]cnc2c1ncn2[C@H]1CC[C@@H](CO)O1 | 85.7 | 97 | 104 | 102 | 88.3 | 101 | 102 | 110 | 99.8 | 90.5 | 69.4 | 77.6 | 86.1 | 84.3 | 85.2 | 77.7 | 97.6 | 105 | 92.7 | 99.5 | 67.8 | 70.3 | 85.1 | 86.6 | 98 | 95.8 | 90.8 | 86.4 | 99.9 | 94 | 83.4 | 60.8 | 47.4 |
| NC(=O)c1cccc(N)c1 | 92.8 | 104 | 38.7 | 112 | 116 | 120 | 113 | 129 | 115 | 106 | 118 | 79.9 | 115 | 27.4 | 95.4 | 102 | 98.2 | 105 | 94.4 | 96.3 | 117 | 99.4 | 72.3 | 106 | 10.3 | 79.6 | 84.5 | 97.8 | 82.9 | 85.5 | 80.6 | 104 | 81.6 |
| CN(C)c1ccc2cc(C(=O)N[C@@H](CCCNC(=N)CCl)C(=O)NCc3ccccc3)ccc2c1 | 114 | 115 | 101 | 115 | 117 | 112 | 113 | 121 | 110 | 101 | 11.7 | 104 | 105 | 99.7 | 104 | 122 | 108 | 115 | 90 | 106 | 84 | 6.08 | 113 | 112 | 104 | 111 | 112 | 110 | 120 | 90.9 | 101 | 74.1 | 5.29 |
| CC(C)(C)NC(=O)[C@@H]1CN(Cc2cccnc2)CCN1C[C@@H](O)C[C@@H](Cc1ccccc1)C(=O)N[C@H]1c2ccccc2C[C@H]1O.O=S(=O)(O)O | 73.5 | 89.2 | 93.5 | 100 | 94.1 | 96.5 | 104 | 90.9 | 93.3 | 90.3 | 78.7 | 102 | 102 | 109 | 119 | 94.9 | 118 | 122 | 112 | 96.9 | 90.4 | 62.8 | 109 | 99.5 | 104 | 114 | 107 | 108 | 112 | 122 | 95.6 | 92.1 | 54.5 |
| OCCCNc1cc(-c2ccnc(Nc3cccc(Cl)c3)n2)ccn1 | 86.3 | 99.5 | 110 | 108 | 121 | 45.7 | 10.1 | 8.28 | 6.56 | 5.81 | 3.56 | 96.2 | 105 | 114 | 113 | 122 | 62.1 | 10.9 | 5.73 | 6.76 | 5.91 | 3.62 | 103 | 125 | 125 | 123 | 143 | 88.2 | 10.4 | 5.66 | 6.14 | 5.72 | 3.94 |
| O=C(NNC(=O)c1ccc(CN[S+](=O)([O-])c2ccc(F)c(Cl)c2)cc1)c1ccccc1 | 84.6 | 97.1 | 98.2 | 89.9 | 107 | 109 | 109 | 102 | 112 | 106 | 87 | 79.6 | 76.6 | 89.6 | 97.4 | 96 | 91.1 | 93.1 | 96.9 | 87 | 103 | 64.5 | 92.9 | 85.2 | 92.5 | 75 | 91.5 | 98.3 | 102 | 105 | 88.2 | 104 | 106 |
| Cc1ccc(C(=O)c2cc(O)c(O)c([N+](=O)[O-])c2)cc1 | 78.2 | 96.4 | 98.5 | 81.4 | 97.7 | 91.1 | 115 | 110 | 108 | 111 | 95.6 | 83.1 | 82.8 | 88.7 | 96.1 | 93.4 | 94 | 80.8 | 89.4 | 102 | 88.8 | 101 | 92.6 | 88 | 103 | 100 | 96.7 | 101 | 101 | 99.7 | 110 | 87.6 | 95.9 |
| CCCCCCCCc1ccc(CCC(N)(CO)CO)cc1 | 103 | 108 | 108 | 111 | 101 | 120 | 110 | 118 | 97.1 | 83.2 | 2.73 | 105 | 116 | 117 | 110 | 104 | 110 | 115 | 109 | 107 | 124 | 3.38 | 99.4 | 115 | 107 | 120 | 122 | 111 | 115 | 121 | 93.7 | 107 | 2.59 |
| CN[C@@H]1C[C@H]2O[C@@](C)([C@@H]1OC)n1c3ccccc3c3c4c(c5c6ccccc6n2c5c31)C(=O)N[C@H]4O | 72.1 | 79.1 | 87.6 | 77.7 | 64 | 55.4 | 36.7 | 16.5 | 6.79 | 3.78 | 3.23 | 82.8 | 78 | 76.6 | 90.4 | 67.3 | 69.8 | 45 | 5.6 | 5.83 | 3.57 | 2.57 | 81.2 | 87.9 | 83.8 | 84.1 | 57.5 | 69.5 | 35.4 | 5.65 | 4.44 | 4.12 | 2.58 |
